Reference: article PMC6900016, “Synthesis of Indomorphan Pseudo‐Natural Product Inhibitors of Glucose Transporters GLUT‐1 and ‐3” (Angewandte Chemie (International Ed. in English), 2019)

Experiments:
Experiment in all cases: cells
Design in all cases: Cell growth inhibition, sulforhodamine B total protein staining
SKLMS1 = conditions: Homo sapiens, SK-LMS-1; 72 h growth; read-out: Cell growth inhibition IC50/µM
Procedure: (§1) Cell panel profiling A panel of 94 cell lines was exposed to Glupin for 72 h to assess the influence on cell growth (Oncolead, Germany). Cell growth was determined using sulforhodamine B assay. Measurements were performed using a total protein staining protocol. Briefly, after treatement cells were fixed addition of 10% TCA (for adherent growing cells) or 50% TCA (for semi-adherent growing cells or cells growing in suspension). After an incubation at 4°C for 1 h, plates were washed twice with 400 μl of deionized water and dried. Cells were then stained with 100 μl of 0.04% wt/v sulforhodamine B. Plates were incubated at room temperature for at least 30 min and washed six times with 1% acetic acid to remove unbound stain. […] This effect was much stronger at a physiological glucose concentration (5 mM; Figure 5 b,c). […] IC50 values lower than 300 nM were obtained for more than 20 cell lines, whereas 24 cell lines were not affected by the compound, among them the peripheral blood mononuclear control cells (PBMCs). Sensitivity to Glupin was detected across various tissue types (Table S6).

L363 = conditions: Homo sapiens, L-363; 72 h growth; read-out: Cell growth inhibition IC50/µM
Procedure: as §1

OVCAR3 = conditions: Homo sapiens, OVCAR-3; 72 h growth; read-out: Cell growth inhibition IC50/µM
Procedure: as §1

SKHEP1 = conditions: Homo sapiens, SK-HEP1; 72 h growth; read-out: Cell growth inhibition IC50/µM
Procedure: as §1

PC3 = conditions: Homo sapiens, PC-3; 72 h growth; read-out: Cell growth inhibition IC50/µM
Procedure: as §1

EJ28 = conditions: Homo sapiens, EJ-28; 72 h growth; read-out: Cell growth inhibition IC50/µM
Procedure: as §1

MINO = conditions: Homo sapiens, MINO; 72 h growth; read-out: Cell growth inhibition IC50/µM
Procedure: as §1

A431 = conditions: Homo sapiens, A-431; 72 h growth; read-out: Cell growth inhibition IC50/µM
Procedure: as §1

WSUNHL = conditions: Homo sapiens, WSU-NHL; 72 h growth; read-out: Cell growth inhibition IC50/µM
Procedure: as §1

NCIH82 = conditions: Homo sapiens, NCI-H82; 72 h growth; read-out: Cell growth inhibition IC50/µM
Procedure: as §1

PLCPRF5 = conditions: Homo sapiens, PLC-PRF-5; 72 h growth; read-out: Cell growth inhibition IC50/µM
Procedure: as §1

HELA = conditions: Homo sapiens, HeLa; 72 h growth; read-out: Cell growth inhibition IC50/µM
Procedure: as §1

A375 = conditions: Homo sapiens, A-375; 72 h growth; read-out: Cell growth inhibition IC50/µM
Procedure: as §1

SKMEL5 = conditions: Homo sapiens, SK-MEL-5; 72 h growth; read-out: Cell growth inhibition IC50/µM
Procedure: as §1

KASUMI1 = conditions: Homo sapiens, Kasumi 1; 72 h growth; read-out: Cell growth inhibition IC50/µM
Procedure: as §1

A204 = conditions: Homo sapiens, A204; 72 h growth; read-out: Cell growth inhibition IC50/µM
Procedure: as §1

CASKI = conditions: Homo sapiens, Ca-Ski; 72 h growth; read-out: Cell growth inhibition IC50/µM
Procedure: as §1

A2780 = conditions: Homo sapiens, A2780; 72 h growth; read-out: Cell growth inhibition IC50/µM
Procedure: as §1

ACHN = conditions: Homo sapiens, ACHN; 72 h growth; read-out: Cell growth inhibition IC50/µM
Procedure: as §1

LOVO = conditions: Homo sapiens, LoVo; 72 h growth; read-out: Cell growth inhibition IC50/µM
Procedure: as §1

MDAMB436 = conditions: Homo sapiens, MDA-MB-436; 72 h growth; read-out: Cell growth inhibition IC50/µM
Procedure: as §1

NCIH292 = conditions: Homo sapiens, NCI-H292; 72 h growth; read-out: Cell growth inhibition IC50/µM
Procedure: as §1

EFO21 = conditions: Homo sapiens, EFO-21; 72 h growth; read-out: Cell growth inhibition IC50/µM
Procedure: as §1

IC50 (SKLMS1): 0.699 µM
IC50 (OVCAR3): > 30 µM
IC50 (SKHEP1): 0.569 µM
IC50 (PC3): 0.827 µM
IC50 (A431): 0.23 µM
IC50 (HELA): 1.25 µM
IC50 (A375): 0.659 µM
IC50 (SKMEL5): > 30 µM
IC50 (A2780): 0.248 µM
IC50 (ACHN): > 30 µM
IC50 (LOVO): 5.41 µM
IC50 (MDAMB436): 11.1 µM
SMILES: CCOC(=O)Cn1c2c(c3ccccc31)C[C@@H]1C[C@H]2C(OC)CN1C(=O)c1cccnc1SC (single isomer, unassigned; (+)) [(+)-5a, Glupin]
IC50 (L363): 2.87 µM
IC50 (EJ28): 1.39 µM
IC50 (MINO): 1.77 µM
IC50 (WSUNHL): 0.062 µM
IC50 (NCIH82): 1.17 µM
IC50 (PLCPRF5): > 30 µM
IC50 (KASUMI1): > 30 µM
IC50 (A204): 0.562 µM
IC50 (CASKI): 0.433 µM
IC50 (NCIH292): > 30 µM
IC50 (EFO21): > 30 µM
